One data set deals with Aspergillus niger. Description: Minimum inhibitory concentration (MIC), agar dilution method, DIN 58940. It counts as cell-based. The protocol:
(§1) The MIC values were determined in accordance with DIN 58940 by the agar dilution method.
(In general: In agar dilution the substance is mixed into plates at graded concentrations.)

Another data set deals with Candida albicans. The data set is described as above. It counts as cell-based. As to the method:
as §1

The subject of the next data set is Pseudomonas aeruginosa. Described as above. In kind it is cell-based. The protocol: as §1
For the next data set, the system named is Staphyloccus aureus. The description is as above. It counts as cell-based. As to the method:
as §1

For data set [1] the following is noted: O/W emulsions and W/O emulsions; 0.5% by weight; cited from earlier work.
The conditions of data set [2]: cited from earlier work.

As to `Cc1cc(CC(C)CC(C)(C)C)n(O)c(=O)c1.NCCO` (centres unmarked) [Octopirox ®, 2-aminoethanol salt of 1-hydroxy-4-methyl-6-(2,4,4-trimethylpentyl)-2(1H)-pyridone], the MIC in % against Aspergillus niger is recorded as 0.004%; in the data set on Candida albicans it was 0.004%; in the data set with Pseudomonas aeruginosa, 0.016%; with Staphyloccus aureus, 0.002%. The antimicrobial activity result in data set [1] is given as “inadequate”. For the same compound, the solubility in oil result in data set [2] was “no more than moderate solubility”. Also, in data set [2], the solubility in water result is on record as “low solubility”.

As for `OCCOc1ccccc1` [PE, 2-phenoxyethanol], the MIC in % worked out at 0.25% with Aspergillus niger, 0.5% in the data set on Candida albicans, 0.5% with Pseudomonas aeruginosa and 0.25% against Staphyloccus aureus.

The record behind these values is patent US8877234B2, “Preservatives” (Clariant Finance (BVI) Limited, priority 2005, dated 2014).
